Here are results for 15 compounds from PubChem BioAssay (NCI).

Test systems include COLO 205 colon; K-562 leukemia; MDA-MB-435; OVCAR-5 ovarian; SW-620 colon; TK-10 renal; U251 CNS; UO-31 renal.
Common to all, as to test: growth of human tumour cells (NCI), 48 h

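Following 48 hours of exposure in 96-well plates, responses at five concentrations were used to interpolate endpoints linearly. GI50: concentration for 50% inhibition of growth. TGI: concentration producing complete growth inhibition.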

As to `COc1ccc2nc(-c3ccc(O)cc3)sc2c1`, the TGI is 44.6 µM in the assay with COLO 205 colon; greater than 100 µM in the assay with K-562 leukemia; 56 µM in the assay on MDA-MB-435; 31.6 µM in the assay with OVCAR-5 ovarian; 44.5 µM in the assay with SW-620 colon; 70.2 µM in the assay with TK-10 renal. The TGI in the assay with U251 CNS amounted to 36.2 µM; in the assay with UO-31 renal, 30.1 µM.

For `COI1NC(=O)c2ccccc21`, the TGI in the assay on COLO 205 colon, in the assay with K-562 leukemia, with MDA-MB-435, in the assay with OVCAR-5 ovarian, in the assay on SW-620 colon and in the assay with TK-10 renal was greater than 100 µM throughout. For the same compound, the TGI in the assay with U251 CNS and in the assay on UO-31 renal was greater than 100 µM in each case.

In the case of `C=C(C)[C@@H]1CCC2=C[C@H](OC2=O)[C@@]2(C)C[C@@H]2C2=CC(C)=C(O2)[C@H]1O`, the TGI in the assay on COLO 205 colon, in the assay on K-562 leukemia, in the assay on MDA-MB-435, in the assay with OVCAR-5 ovarian, in the assay with SW-620 colon and in the assay on TK-10 renal was greater than 75 µM in each case. In addition, the TGI with U251 CNS and in the assay with UO-31 renal was greater than 75 µM in each case.

Consider `N#Cc1ccc(-n2c3ccccc3c3ccc4c(c32)C(=O)C=CC4=O)cc1`, for which the TGI in the assay on COLO 205 colon was 10.5 µM; in the assay on K-562 leukemia it was greater than 100 µM; in the assay with MDA-MB-435, 4.39 µM; in the assay on OVCAR-5 ovarian, 34.8 µM; in the assay on SW-620 colon, 3.31 µM; in the assay with TK-10 renal it was 8.83 µM. Moreover, the figures for the TGI in the assay with U251 CNS and with UO-31 renal were 17.8 µM and 3.02 µM, respectively.

For the compound `CC1=C(C)Cc2c(O)ccc(O)c2C1`, the TGI came out at 34.7 µM in the assay on COLO 205 colon; 49.8 µM in the assay on K-562 leukemia; 30.5 µM in the assay on MDA-MB-435; 38.6 µM in the assay on OVCAR-5 ovarian; 37.6 µM in the assay with SW-620 colon; 36.9 µM in the assay with TK-10 renal. For the same compound, the TGI was found to be 34.2 µM with U251 CNS and 30.6 µM in the assay with UO-31 renal.

As for `Cc1ccccc1S(=O)(=O)Nn1cnc2ccc(S(=O)(=O)Nc3ccc(Cl)cc3)cc2c1=O`, the TGI in the assay with COLO 205 colon, in the assay with K-562 leukemia, with MDA-MB-435, in the assay with OVCAR-5 ovarian, in the assay with SW-620 colon and in the assay with TK-10 renal was greater than 100 µM each time. The TGI with U251 CNS and with UO-31 renal was greater than 100 µM each time.

As for `Cc1ccnc(NC(NC(=O)c2ccccc2)(C(F)(F)F)C(F)(F)F)c1`, the TGI with COLO 205 colon, in the assay on K-562 leukemia, in the assay on MDA-MB-435, in the assay with OVCAR-5 ovarian, in the assay with SW-620 colon and in the assay on TK-10 renal was greater than 100 µM in each case. Besides, the TGI in the assay with U251 CNS and with UO-31 renal was greater than 100 µM in each case.

Take `Oc1ccc(-c2nc3ccc(Cl)cc3s2)cc1`: the TGI in the assay on COLO 205 colon was 32.3 µM; with K-562 leukemia, greater than 100 µM; in the assay with MDA-MB-435 it was 35.6 µM; in the assay on OVCAR-5 ovarian it was 33 µM; in the assay on SW-620 colon, 39.3 µM; with TK-10 renal, 34.7 µM. Further, the TGI in the assay with U251 CNS worked out at 46.9 µM; in the assay with UO-31 renal, 27.8 µM.

Consider `Cc1cc(=O)oc2c(CNC(Cc3ccccc3)C(=O)O)c(O)ccc12` (configuration not stated), for which the TGI with COLO 205 colon, in the assay on K-562 leukemia, with MDA-MB-435, with OVCAR-5 ovarian, with SW-620 colon and in the assay with TK-10 renal was greater than 100 µM each time. The TGI in the assay on U251 CNS and with UO-31 renal was greater than 100 µM each time.

`C/C(=N\NC(=S)NCCCNC(=S)N/N=C(\C)c1ccccn1)c1ccccn1`: the TGI in the assay with COLO 205 colon was greater than 34.9 µM; with K-562 leukemia, greater than 100 µM; in the assay on MDA-MB-435 it was greater than 43.5 µM; in the assay on OVCAR-5 ovarian it was greater than 90.3 µM; in the assay with SW-620 colon, greater than 100 µM; in the assay on TK-10 renal it was 24.2 µM. The TGI with U251 CNS was greater than 47.1 µM; with UO-31 renal, greater than 54.1 µM.

As for `O=C1CSC(c2cccc([N+](=O)[O-])c2)N1c1ccc(-n2c(-c3ccccc3)nc3ccccc3c2=O)cc1` (configuration not stated), the TGI in the assay with COLO 205 colon, in the assay with K-562 leukemia, in the assay with MDA-MB-435, in the assay with OVCAR-5 ovarian, with SW-620 colon and with TK-10 renal was greater than 100 µM each time. In addition, the TGI in the assay with U251 CNS was greater than 100 µM; with UO-31 renal, 65.6 µM.

For the compound `CCOC(=O)CCC(NC(=O)c1ccc(OCc2ccc3nc(-c4ccccc4)c(Cl)nc3c2)cc1)C(=O)OCC` (configuration not stated), the TGI in the assay on COLO 205 colon is greater than 100 µM; with K-562 leukemia it was greater than 100 µM; in the assay on MDA-MB-435 it was greater than 31.6 µM; with OVCAR-5 ovarian, greater than 31.6 µM; in the assay with SW-620 colon, greater than 31.6 µM; in the assay on TK-10 renal, greater than 31.6 µM. Further, the TGI with U251 CNS and with UO-31 renal was greater than 31.6 µM throughout.

Consider `N#C/C(N)=C(\C#N)NC(=O)C(=O)N/C(C#N)=C(\N)C#N`, for which the TGI with COLO 205 colon, with K-562 leukemia, with MDA-MB-435, in the assay with OVCAR-5 ovarian, with SW-620 colon and with TK-10 renal was greater than 100 µM throughout. Further, the TGI with U251 CNS and in the assay with UO-31 renal was greater than 100 µM throughout.

On to `O=[N+]([O-])c1ccc(N/N=C/c2ccc(OCCCCCCCCCCCO)cc2)c([N+](=O)[O-])c1`, for which the TGI was 6.24 µM in the assay on COLO 205 colon; 2.97 µM with K-562 leukemia; 11.7 µM in the assay on MDA-MB-435; greater than 56.1 µM in the assay on OVCAR-5 ovarian; greater than 100 µM in the assay with SW-620 colon; 33.7 µM in the assay with TK-10 renal. Moreover, the TGI turned out to be 10.7 µM with U251 CNS and 36.1 µM with UO-31 renal.

Take `COc1cc2c(cc1OCCCC(=O)Nc1ccc3ccc4cccc5ccc1c3c45)N=C[C@@H]1CCCN1C2=O`: the GI50 with COLO 205 colon was 2.03 µM; in the assay with K-562 leukemia, 0.19 µM; in the assay on MDA-MB-435, 1.61 µM; in the assay on OVCAR-5 ovarian it was less than 0.01 µM; in the assay with SW-620 colon, less than 0.0126 µM; with TK-10 renal it was 0.0384 µM. The GI50 in the assay with U251 CNS is less than 0.01 µM; in the assay on UO-31 renal, less than 0.0158 µM. The TGI in the assay with COLO 205 colon was 4.77 µM; with K-562 leukemia, 14.1 µM; with MDA-MB-435, 3.07 µM; in the assay with OVCAR-5 ovarian, less than 0.0506 µM; in the assay with SW-620 colon, 0.0483 µM; in the assay on TK-10 renal, 0.237 µM. In addition, the TGI in the assay with U251 CNS was greater than 100 µM.
